From patent US20210401821A1, “PROPHYLACTIC OR THERAPEUTIC AGENT AND MEDICINAL COMPOSITION FOR IL-31-MEDIATED DISEASE” (Kyushu University, National University Corporation, priority 2018, published 2021)

Assays:
wild-type C57BL/6 mice [1] = experiment: Scratching behavior induced by IL-31 after NK3R antagonist administration; format: in vivo, mouse; settings: 45 minutes before intradermal IL-31 (1 μg/50 μl)
Description: (§1) Prior to the experiments, mice were placed in an acrylic cage (11 cm×14 cm×20 cm) for at least 1 hour to acclimatize to the environment. Subsequently, 50 μL of a pruritus-inducing substance dissolved in sterilized physiological saline was injected intradermally into shoulders of the mice, and the behavior of these mice was videotaped. The total number of scratching behavior within a specified time was determined by playing the video. During the scratching behavior of a mouse, the mouse extends its hind leg to the itchy area, tilts its head toward the hind leg, quickly turns the hind leg several times, and returns the hind leg to the ground. These series of actions were counted as one scratching behavior. As pruritus-inducing substances. IL-31 (1 μg/50 μl; PeproTech Inc.). SLIGRL-NH2 (100 μg/50 μl; Bachem Holding AG), chloroquine (100 μg/50 μl; Wako Pure Chemical Industries.), and histamine (100 μg/50 μl; Wako Pure Chemical Industries.) were used.
(§2) In some experiments, the actions of NK3R antagonists on the scratching behavior of the mice were investigated. As compounds having activity as an NK3R antagonist or an NK3R antagonist, osanetant (Axon Medchem.), talnetant (NAMIKI SHOJI Co., Ltd.), pavinetant (NAMIKI SHOJI Co., Ltd.), fezolinetant (Haoyuan Chemexpress Co., Ltd.). SSR-146977 (Tocris Bioscience.), SSR-241586 (WuXi AppTec New Drug Development Co. Ltd.), SB-235375 (WuXi AppTec New Drug Development Co. Ltd.), and CS-003 (WuXi AppTec New Drug Development Co. Ltd.) were used. These compounds were administered to the mice in a predetermined amount per weight of each mouse 45 minutes before the intradermal injection of the pruritus-inducing substance. Osanetant was dissolved in phosphate buffered saline (PBS) containing 0.1% Tween-20 and intraperitoneally injected at 5 mg/kg. Talnetant and pavinetant were dissolved in a mixture of 10% dimethyl sulfoxide (DMSO), 40% polyethylene glycol 300, 5% Tween-80, and 45% saline and were intraperitoneally injected at 30 mg/kg. Fezolinetant was dissolved in PBS containing 10% DMSO and orally administered at 10 mg/kg. SSR-146977 was dissolved in PBS containing 0.1% ethanol and intraperitoneally injected at 0.3 mg/kg. SSR-241586 was dissolved in a 0.01% Tween-80 aqueous solution and intraperitoneally injected at 3 mg/kg. SB-235375 was dissolved in PBS and orally administered at 3 mg/kg. CS-003 was dissolved in PBS containing 5% glucose and intravenously injected at 3 mg/kg.
(§3) Similar to osanetant, fezolinetant that is a selective antagonist of NK3R was orally administered to wild-type C57BL/6 mice, and the effect on the scratching behavior induced by IL-31, histamine, or chloroquine was analyzed.
(§4) Furthermore, CS-003 that is an antagonist to neurokinin 3 receptor (NK3R) and also an antagonist to neurokinin 1 receptor (NK1R) and neurokinin 2 receptor (NK2R), and SSR-241586 that is an antagonist to NK3R and NK2R were administered to wild-type C57BL/6 mice, and then the effects of the compounds on the scratching behavior induced by IL-31 or chloroquine were analyzed.

wild-type C57BL/6 mice [2] = experiment: Scratching behavior induced by histamine after NK3R antagonist administration; format: in vivo, mouse; settings: 45 minutes before intradermal histamine (100 μg/50 μl)
Description: as §1
In some experiments, the actions of NK3R antagonists on the scratching behavior of the mice were investigated. […]
as §3

wild-type C57BL/6 mice [3] = experiment: Scratching behavior induced by chloroquine after NK3R antagonist administration; format: in vivo, mouse; settings: 45 minutes before intradermal chloroquine (100 μg/50 μl)
Description: as §1, §2, §3, §4

Tac2−/− (Δ4) mice = experiment: Scratching behavior after injecting NKB into medullary cavities; format: in vivo, mouse; settings: FIG. 10(a)
Description: Next, in order to identify the site where NKB was functioning. NKB was injected into medullary cavities of Tac2^−/− (Δ4) mice, and scratching behavior was analyzed.

Grp mRNA = Grp mRNA expression in stimulated DRG neurons in vitro; format: cell-based, mouse; settings: DRG neurons from wild-type C57BL/6 mice stimulated with NKB in vitro; FIG. 4(b)
Description: (§5) Total RNAs were extracted from each tissue using ISOGEN (NIPPON GENE CO., LTD.). Total RNAs were treated with RNase-free DNase I (Thermo Fisher Scientific K.K.). This RNA sample was reverse transcribed using an oligo (dT) primer (v) and SuperScript III reverse transcriptase (Thermo Fisher Scientific K.K.), and amplified by PCR. Real-time PCR was performed by Cfx Connect™ Thermal Cycler (Bio-Rad Laboratories, Inc.) using SYBR Green PCR Master Mix (Applied Biosystems). The expression level of the target gene was normalized by an expression level of Hprt gene. For the analysis, CFX Manager (ver3.1) attached to a device was used.
(§6) Changes in the expression levels of Tac2, Grp. and Nppb through administration of IL-31 or NKB were analyzed. First. DRG neurons isolated from the wild-type C57BL/6 mice were stimulated by the addition of the IL-31 protein in vitro, and the expression levels of Tac2 mRNA, Grp mRNA, and Nppb mRNA were analyzed.
(§7) Next, DRG neurons isolated from the wild-type C57BL/6 mice were stimulated by neurokinin B (NKB) in vitro, and the expression levels of Grp mRNA and Nppb mRNA were analyzed.

Nppb mRNA = Nppb mRNA expression in stimulated DRG neurons in vitro; format: cell-based, mouse; settings: DRG neurons from wild-type C57BL/6 mice stimulated with NKB in vitro; FIG. 4(b)
Description: as §5, §6, §7

[4] = 30 mg/kg intraperitoneal, FIGS. 13(a), 14(a)
[5] = 30 mg/kg intraperitoneal, FIGS. 13(b), 14(b)
[6] = SSR-241586 3 mg/kg intraperitoneal, CS-003 3 mg/kg intravenous, FIGS. 16(a), 17(a)

Q: CC(=O)N(C)C1(c2ccccc2)CCN(CCC[C@]2(c3ccc(Cl)c(Cl)c3)CCCN(C(=O)c3ccccc3)C2)CC1 [osanetant, N-[1-[3-[(3R)-1-benzoyl-3-(3,4-dichlorophenyl)piperidine-3-yl)propyl)-4-phenylpiperidine-4-yl]-N-methyl acetamide] was tested. Which “frequency of scratching behavior by IL-31” value (wild-type C57BL/6 mice [1]; osanetant 5 mg/kg intraperitoneal, FIG. 11(c)) did it give?
A: decreased

Q: And the “frequency of scratching behavior by histamine” value (wild-type C57BL/6 mice [2]; osanetant 5 mg/kg intraperitoneal, FIG. 11(d))?
A: did not decrease

Q: And the “frequency of scratching behavior by chloroquine” value (shortened to “frequency … by chloroquine”) (wild-type C57BL/6 mice [3]; osanetant 5 mg/kg intraperitoneal, FIG. 11(e))?
A: did not decrease

Q: Which “frequency of scratching behavior induced by IL-31” value (wild-type C57BL/6 mice [1]; 3 mg/kg oral, FIG. 18(a)) does the source give for CC[C@H](NC(=O)c1c(OCC(=O)O)c(-c2ccccc2)nc2ccccc12)c1ccccc1 [SB-235375, 2-[2-phenyl-4-[N-[1 (S)-phenylpropyl]carbamoyl]quinoline-3-yloxy]acetic acid] here?
A: did decrease

Q: What about the “frequency … by chloroquine” value (wild-type C57BL/6 mice [3]; 3 mg/kg oral, FIG. 18(b)) of the same compound?
A: did not decrease

Q: For CC[C@H](NC(=O)c1c(O)c(-c2ccccc2)nc2ccccc12)c1ccccc1 [talnetant, N-(α-ethylbenzyl)-3-hydroxy-2-phenylquinoline-4-carboxamide], which “frequency of scratching behavior induced by IL-31” value (wild-type C57BL/6 mice [1]; [4]) is on record?
A: did decrease

Q: And the “frequency … by chloroquine” value (wild-type C57BL/6 mice [3]; [5])?
A: did not decrease

Q: Which results are given for Cc1nsc(-c2nnc3n2CCN(C(=O)c2ccc(F)cc2)[C@@H]3C)n1 [fezolinetant, (4-fluorophenyl)-[(8R)-8-methyl-3-(3-methyl-1,2,4-thiadiazole-5-yl)-6,8-dihydro-5H-[1,2,4]triazolo[4,3-a]pyrazine-7-yl]-methanone]?
A: frequency of scratching behavior by IL-31 (wild-type C57BL/6 mice [1]; fezolinetant 10 mg/kg oral, FIG. 12(a)): decreased; frequency of scratching behavior by histamine (wild-type C57BL/6 mice [2]; fezolinetant 10 mg/kg oral, FIG. 12(b)): did not decrease; frequency of scratching behavior by chloroquine (wild-type C57BL/6 mice [3]; fezolinetant 10 mg/kg oral, FIG. 12(c)): did not decrease

Q: For COc1cc(C(=O)N2CCO[C@](CCN3CCC4(CC3)c3ccccc3C[S@+]4[O-])(c3ccc(Cl)c(Cl)c3)C2)cc(OC)c1OC [CS-003], which “frequency of scratching behavior induced by IL-31” value (wild-type C57BL/6 mice [1]; [6]) is on record?
A: suppressed

Q: How did the “scratching behavior after intramedullary injection of NKB” value (Tac2−/− (Δ4) mice) turn out when “NKB: mature neurokinin B, neuropeptide from PPT-3 (Tac2 gene), SEQ ID NO: 2; binds neurokinin receptor 3 (DMHDFFVGLM; listed as Homo sapiens)” was run?
A: induced the scratching behavior

Q: What about the “expression level of Grp mRNA” value (Grp mRNA) of the same compound?
A: increased

Q: What about the “expression level of Nppb mRNA” value (Nppb mRNA) of the same compound?
A: increased

Q: With CN(C)C(=O)C1(N2CCCCC2)CCN(CC[C@@]2(c3ccc(Cl)c(Cl)c3)CN(C(=O)c3ccccc3)CCO2)CC1 [SSR-241586, (+)-1′-[2-[4-benzoyl-2(R)-(3,4-dichlorophenyl)morpholine-2-yl]ethyl]-N,N-dimethyl-1,4′-bipiperidin-4′-carboxamide] as the compound, how does the “frequency of scratching behavior induced by IL-31” value (wild-type C57BL/6 mice [1]; [6]) read?
A: suppressed

Q: How did the “frequency of scratching behavior induced by IL-31” value (wild-type C57BL/6 mice [1]; [4]) turn out when CC[C@H](NC(=O)c1c(NS(C)(=O)=O)c(-c2ccccc2)nc2ccccc12)c1ccccc1 [pavinetant] was run?
A: did decrease

Q: What about the “frequency … by chloroquine” value (wild-type C57BL/6 mice [3]; [5]) of the same compound?
A: did not decrease
